Data: the Kinase Knowledgebase extract (Sharma et al. 2016)

Biological target: ROCK1;ROCK2 (human) (UniProt O75116)
Assay: Inhibition of ROCK1/ROCK2 Kinase Activity

Sequence of ROCK1;ROCK2 (human) (O75116 whole entry, looked up): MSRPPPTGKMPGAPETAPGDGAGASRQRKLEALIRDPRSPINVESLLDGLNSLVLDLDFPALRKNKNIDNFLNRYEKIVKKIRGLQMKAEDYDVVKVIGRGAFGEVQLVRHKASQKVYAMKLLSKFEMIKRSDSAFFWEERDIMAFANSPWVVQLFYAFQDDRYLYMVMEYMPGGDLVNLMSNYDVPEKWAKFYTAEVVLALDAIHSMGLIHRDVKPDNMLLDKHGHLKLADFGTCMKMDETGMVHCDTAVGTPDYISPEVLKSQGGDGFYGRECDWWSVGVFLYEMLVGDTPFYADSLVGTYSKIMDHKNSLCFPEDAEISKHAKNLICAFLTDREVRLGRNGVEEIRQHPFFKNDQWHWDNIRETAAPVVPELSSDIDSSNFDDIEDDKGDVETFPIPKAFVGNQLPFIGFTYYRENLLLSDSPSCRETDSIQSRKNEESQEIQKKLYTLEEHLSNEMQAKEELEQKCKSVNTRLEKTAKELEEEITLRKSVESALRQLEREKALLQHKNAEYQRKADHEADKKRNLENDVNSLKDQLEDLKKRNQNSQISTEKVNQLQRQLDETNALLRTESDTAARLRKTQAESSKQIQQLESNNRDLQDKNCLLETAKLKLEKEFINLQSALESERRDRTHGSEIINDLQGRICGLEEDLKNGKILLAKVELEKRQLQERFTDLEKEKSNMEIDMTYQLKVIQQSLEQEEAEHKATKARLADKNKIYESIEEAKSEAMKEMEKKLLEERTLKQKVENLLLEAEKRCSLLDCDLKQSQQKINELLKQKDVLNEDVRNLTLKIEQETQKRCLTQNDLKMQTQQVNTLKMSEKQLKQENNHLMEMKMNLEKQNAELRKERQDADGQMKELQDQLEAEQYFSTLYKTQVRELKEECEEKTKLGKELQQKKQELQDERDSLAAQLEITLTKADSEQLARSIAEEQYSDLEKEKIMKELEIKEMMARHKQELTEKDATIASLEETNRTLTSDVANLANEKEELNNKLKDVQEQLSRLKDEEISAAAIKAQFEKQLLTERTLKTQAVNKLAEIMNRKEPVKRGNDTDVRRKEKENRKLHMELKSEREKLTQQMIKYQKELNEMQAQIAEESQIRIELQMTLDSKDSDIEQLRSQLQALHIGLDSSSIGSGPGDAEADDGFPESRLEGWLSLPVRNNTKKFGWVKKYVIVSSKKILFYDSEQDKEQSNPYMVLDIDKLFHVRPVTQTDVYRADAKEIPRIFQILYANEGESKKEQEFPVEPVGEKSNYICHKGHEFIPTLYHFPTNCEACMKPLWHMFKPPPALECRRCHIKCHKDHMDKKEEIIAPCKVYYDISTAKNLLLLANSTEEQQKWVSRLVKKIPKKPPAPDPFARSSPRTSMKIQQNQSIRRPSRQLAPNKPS

Structure (SMILES)	IC50
CC(N)c1ccc(C(=O)Nc2ccncc2)cc1-c1ccc(F)cc1 (stereo unspecified)	< 50 nM
CC(N)c1ccc(C(=O)Nc2ccncc2)cc1-c1ccc2ccccc2c1 (stereo unspecified)	< 50 nM
CC(N)c1ccc(C(=O)Nc2ccncc2)cc1NC(=O)c1ccc(Cl)cc1 (stereo unspecified)	50 to 500 nM
CC(N)c1ccc(C(=O)Nc2ccncc2)cc1-c1ccc(Cl)cc1 (stereo unspecified)	< 50 nM
CC(N)c1ccc(C(=O)Nc2ccncc2)cc1NC(=O)c1ccco1 (stereo unspecified)	50 to 500 nM
COc1ccc(-c2cc(C(=O)Nc3ccncc3)ccc2C(C)N)cc1 (stereo unspecified)	50 to 500 nM
COc1cccc(C(=O)Nc2cc(C(=O)Nc3ccncc3)ccc2C(C)N)c1 (stereo unspecified)	< 50 nM
CC(N)c1ccc(C(=O)Nc2ccncc2)cc1-c1cccc(Cl)c1 (stereo unspecified)	< 50 nM
CC(N)c1ccc(C(=O)Nc2ccncc2)cc1NCc1ccco1 (stereo unspecified)	50 to 500 nM
COc1ccc(C(=O)Nc2cc(C(=O)Nc3ccncc3)ccc2C(C)N)cc1 (stereo unspecified)	< 50 nM
CC(N)c1ccc(C(=O)Nc2ccncc2)cc1-c1ccoc1 (stereo unspecified)	50 to 500 nM
C[C@@H](N)c1ccc(C(=O)Nc2ccncc2)cc1-c1cccs1	< 50 nM
C[C@H](N)c1ccc(C(=O)Nc2ccncc2)cc1-c1cccs1	50 to 500 nM
CC(N)c1ccc(C(=O)Nc2ccncc2)cc1NC(=S)Nc1ccccc1 (stereo unspecified)	50 to 500 nM
CC(N)c1ccc(C(=O)Nc2ccncc2)cc1NC(=O)c1ccccc1 (stereo unspecified)	50 to 500 nM
CC(N)c1ccc(C(=O)Nc2ccncc2)cc1NC(=O)c1cccc(Cl)c1 (stereo unspecified)	50 to 500 nM
CC(N)c1ccc(C(=O)Nc2ccncc2)cc1NC(=O)Nc1ccccc1 (stereo unspecified)	50 to 500 nM

Other lines, results leading:

IC50	Structure (SMILES)
500 to 5000 nM	CC(N)c1ccc(C(=O)Nc2ccncc2)cc1N (stereo unspecified)
500 to 5000 nM	CC(N)c1ccc(C(=O)Nc2ccncc2)cc1OCCCN (stereo unspecified)
500 to 5000 nM	CC(N)c1ccc(C(=O)Nc2ccncc2)cc1OCCCO (stereo unspecified)
50 to 500 nM	CC(N)c1ccc(C(=O)Nc2ccncc2)cc1[N+](=O)[O-] (stereo unspecified)
500 to 5000 nM	CC(N)c1ccc(C(=O)Nc2ccncc2)cc1OCCN (stereo unspecified)
50 to 500 nM	CC(N)c1ccc(C(=O)Nc2ccncc2)cc1OCc1ccccc1 (stereo unspecified)
500 to 5000 nM	CC(N)c1ccc(C(=O)Nc2ccncc2)cc1OCCO (stereo unspecified)
500 to 5000 nM	CC(N)c1ccc(C(=O)Nc2ccncc2)cc1O (stereo unspecified)
< 50 nM	CC(N)c1ccc(C(=O)Nc2ccncc2)cc1-c1cccs1 (stereo unspecified)
